Measurements: patent US7892764B2, “System for seizure suppression” (priority 2006, dated 2011)

Test system: mouse hippocampal slices
Assay: Low Mg2+-induced epileptiform bursting activity (evoked and spontaneous) in hippocampal slices
Format: cell-based
Conditions: Mg2+-free aCSF; for frequency of spontaneous clustered bursts / frequency of spontaneous clustered bursts relative to control: bath perfusion
Method: Limbic seizures (Avoli et al., 2002) are modeled by removing Mg^2+ from artificial cerebral spinal fluid (aCSF) in slices of hippocampal-entorhinal cortex, which triggers interictal-like bursting activity, or spontaneous ictal-like events (Wong et al., 2001; Anderson et al., 1986). In the presence of normal Mg^2+ (1.5 mM), stimulation of Schaffer collaterals induces single population spike or EPSP in the CA1 region of the hippocampus. […] Perfusion with Mg^2+-free aCSF for about 30 min evoked synchronous burst firing with the same stimulation intensity. In about, 30% of the slices, spontaneous clustered bursts developed in the absence of electrical stimulation. Bath perfusion of amiloride or PcTX1 for 10 min reduced the amplitude and frequency of evoked bursting activity (FIGS. 5A and 5B). Amiloride (100 μM) reduced the amplitude of the first and the second population spikes (from 1.2±0.2 mV to 0.5±0.2 mV and 0.6±0.03 mV to 0.2±0.05 mV, respectively (n=9: p<0.01, FIGS. 5A and 5B), and the number of population spikes (from 4.7±0.6 to 3.3±0.8, n=9, p<0.05)). Similarly, PcTX1 (200 ng/mL) attenuated the amplitude of the population spike (from 2.1±0.3 to 1.6±0.2 mV, n=9, p<0.05) and the number of spikes (from 4.2±0.6 to 3.0±0.6, p<0.05).
Preparation of hippocampal slices and brain slice recording. Hippocampal slices were obtained from 8- to 10-week-old mice. The protocol for brain-slice recording was approved by the Institutional Animal Care and Use Committee of Legacy Research. Animals were deeply anesthetized with isoflurane and decapitated. Brains were quickly removed and placed in ice-cold solution that contained: 125 mM sucrose, 2.5 mM KCl, 26 mM NaHCO3, 1.25 mM NaHPO4, 6.0 mM […], 0.5 mM CaCl2, and 10 mM glucose, and was saturated with 95% O2 and 5% CO2 (pH 7.4). Hippocamnpal slices were cut in 400 μm thickness in transverse plane with a vibratome (Leica VT 1000S) and placed in a slice holding chamber (BSC-PC Prechamber, Warner Instrument) and incubated in normal artificial cerebral spinal fluid (aCSF) that contained: 125 mM NaCl, 2.5 mM KCl, 26 mM NaHCO3, 1.25 mM […], 1.0 mM MgSO4, 2.0 mM CaCl2, and 10 mM glucose, and was saturated with 95% O2 and 5% CO2 (pH 7.4).
Following ˜60 min of incubation at room temperature, individual slices were transferred to a submerged slice chamber with a volume of 0.5 mL (Warner Instruments, Hamden, Conn.) and perfused with oxygenated aCSF (35° C.) at a rate of 3-4 mL/min. Recording electrodes were pulled from borosilicate glass and filled with aCSF. The population spike and the field excitatory postsynaptic potentials (fEPSP) were recorded in stratum pyramidale and striatum radiatum of hippocampal CA1 region, by stimulating Schaffer Collaterals.
For low Mg^2+ induced epileptic burst activity, Mg^2+-free aCSF was perfused to the slices for ˜30 min. For stimulus-train induced bursting discharges (STIB), each stimulation train consisted of 120 pulses at 60 Hz and each pulse was 100 μsec in duration (Stasheff et al., 1985). A 10-minute interval of non-stimulation was provided between successive trains of high frequency stimulation. Stimulation electrodes were located in striatum radiatum between CA1 and CA3 region. The population spikes were recorded from striatum pyramidale of the CA3 region.
Pharmacological and electrical bursting models. To induce epileptic burst discharges, Mg^2+-free aCSF was applied. Mg^2+-free aCSF was obtained by simply omitting MgSO4 from aCSF.

[1] = 100 μM amiloride, bath perfusion 10 min, evoked
[2] = PcTX1 200 ng/mL, bath perfusion 10 min, evoked

NC(N)=NC(=O)c1nc(Cl)c(N)nc1N [amiloride, 3,5-diamino-6-chloro-N(diaminomethylidene)pyrazine-2-carboxamide]
amplitude of the first population spike [1]: 0.5±0.2 mV
amplitude of the second population spike [1]: 0.2±0.05 mV
number of population spikes [1]: 3.3±0.8
frequency of spontaneous clustered bursts: 26.0 ± 5.8 min⁻¹
frequency of spontaneous clustered bursts relative to control: 0.84±0.05 of control

Psalmotoxin 1 [PcTX1]
frequency of spontaneous clustered bursts: 59.9 ± 11.3 min⁻¹
frequency of spontaneous clustered bursts relative to control: 0.68±0.07 of control
amplitude of the population spike [2]: 1.6±0.2 mV
number of spikes [2]: 3.0±0.6
